Key:
Assay type in all cases: cell-based
[1] = tested on: mouse microglial N9 cells; assay: cell viability (LDH assay) in microglial N9 cells; details: for LDH release activity (cytotoxic effect): basal conditions, 0.5-5 μM, 24 hours (FIG. 4); for cell mortality (LDH release), neuroprotective effect: pre-incubation 0.5-5 μM, then LPS (100 ng/mL) for 24 hours (FIG. 4)
Procedure: Study of the effect of compounds (S)-4, (S)-5, (S)-7, (R)-8, (S)-8, (S)-9, (S)-12, (S)-15 and (S)-16 on the cell viability (LDH assay) in cultures of mouse microglial N9 cells.
The neuroprotective activity of the compounds (S)-4, (S)-5, (S)-7, (R)-8, (S)-8, (S)-9, (S)-12, (S)-15 and (S)-16 was assessed by determining its effect on the cell viability both under basal conditions and following stimulation with bacterial lipopolysaccharide (LPS) toxin. The mouse microglial N9 cells were seeded in a 96-well plate (2x10^4 cells/well) by using RPMI supplemented with 1% fetal bovine serum (FBS) as culture medium. The cells were incubated for 24 hours with different concentrations of the selected compounds (0.5-5 μM) to assess the potential cytotoxic effect of the compounds. The control cells were treated with the carrier only. To quantify the cell mortality, the level of lactate dehydrogenase (LDH) release after 24 hours of treatment was determined. The supernatant of the cell cultures was taken and incubated for 20 minutes at room temperature with the appropriate mixture of reagents according to the instructions of the supplier of the assessment kit (Cytotoxicity Detection Kit, Roche, Germany). The LDH release activity was determined as conversion of lactate to pyruvate by a colorimetric test (X=490 nm, Infinite 200 PRO Detector, TECAN, Switzerland). The LDH release activity is proportional to the 25 number of damaged cells. […] Subsequently, the cells were pre-incubated with different concentrations of the selected compounds (0.5-5 μM) and then stimulated with LPS (100 ng/mL) for 24 hours. The control cells were treated with the carrier only. The cell viability at the end 30 of 24 hours was assessed as previously described.

[2] = tested on: IL-1β release in mouse microglial N9 cells; assay: IL-1β release (ELISA) in microglial N9 cells
Procedure: (§1) The anti-inflammatory effect of the compounds (S)-4, (S)-7, (S)-8, (S)-9 and (S)-16 was determined by assessing its ability to affect the release of the pro-inflammatory cytokines IL-1β and TNF-α both in the cells under basal conditions and after stimulation with LPS. The mouse microglial N9 cells were seeded in a 96-well plate (2×10^4 cells/well) by using Iscove supplemented with 10% FBS as culture medium. The cells were then treated with different concentrations of the selected compounds (0.5-5 il.M) for 24 hours. The supernatant was then collected and the IL-1β and TNF-a levels were measured by using specific ELISA kits following the instructions of the supplier (R&D Systems, USA). […] Subsequently, the cells were pre-incubated with different concentrations of the selected compounds (0.5-5 μM) and then stimulated with LPS (100 ng/mL) for 24 hours. The control cells were treated with the carrier only. The IL-1β and TNF-α levels were determined as previously described. […] The specificity of the observed effect was assessed by co-incubating the cells with the FPR2 antagonist WRW4.

[3] = tested on: TNF-α release in mouse microglial N9 cells; assay: TNF-α release (ELISA) in microglial N9 cells
Procedure: as §1

[4] = basal conditions, 0.5-5 μM, 24 hours (FIG. 5)
[5] = pre-incubation 0.5-5 μM, then LPS (100 ng/mL) for 24 hours (FIG. 5)
[6] = basal conditions, 0.5-5 μM, 24 hours (FIG. 6)
[7] = pre-incubation 0.5-5 μM, then LPS (100 ng/mL) for 24 hours (FIG. 6)

| Structure (SMILES) | LDH release activity (cytotoxic effect) [1] | cell mortality (LDH release), neuroprotective effect [1] | IL-1β release [2, 4] | IL-1β release [2, 5] | TNF-α release [3, 6] | TNF-α release [3, 7] |
| --- | --- | --- | --- | --- | --- | --- |
| N#Cc1ccc(C[C@H](NC(=O)Nc2ccc(F)cc2)C(=O)NC2CCCCNC2=O)cc1 (stereo partly drawn) [(S)-4, (2S)-3-(4-Cyanophenyl)-2-(3-(4-fluorophenyl)ureido)-N-(2-oxoazepan-3-yl)propanamide] | do not increase the LDH release activity | reduce the cell mortality effect caused by the stimulation with LPS | do not cause increased release of the two cytokines | reduce the release of inflammatory cytokines | do not cause increased release of the two cytokines | reduce the release of inflammatory cytokines |
| N#Cc1ccc(C[C@H](NC(=O)Nc2ccc(F)cc2)C(=O)N2CCc3cc(F)ccc32)cc1 [(S)-9, (S)-1-(3-(4-Cyanophenyl)-1-(5-fluoroindolin-1-yl)-1-oxopropan-2-yl)-3-(4-fluorophenyl)urea] | do not increase the LDH release activity | reduce the cell mortality effect caused by the stimulation with LPS | do not cause increased release of the two cytokines | reduce the release of inflammatory cytokines | do not cause increased release of the two cytokines | reduce the release of inflammatory cytokines |
| N#Cc1ccc(C[C@H](NC(=O)Nc2ccc(F)cc2)C(=O)N2CCc3ccccc32)cc1 [(S)-7, (S)-1-(3-(4-Cyanophenyl)-1-(indolin-1-yl)-1-oxopropan-2-yl)-3-(4-fluorophenyl)urea] | do not increase the LDH release activity | reduce the cell mortality effect caused by the stimulation with LPS | do not cause increased release of the two cytokines | reduce the release of inflammatory cytokines | do not cause increased release of the two cytokines | reduce the release of inflammatory cytokines |
| N#Cc1ccc(C[C@H](NC(=O)Nc2ccc(F)cc2)C(=O)N2CCc3ccc(F)cc32)cc1 [(S)-8, (S)-1-(3-(4-Cyanophenyl)-1-(6-fluoroindolin-1-yl)-1-oxopropan-2-yl)-3-(4-fluorophenyl)urea] | do not increase the LDH release activity | reduce the cell mortality effect caused by the stimulation with LPS | do not cause increased release of the two cytokines | reduce the release of inflammatory cytokines | do not cause increased release of the two cytokines | reduce the release of inflammatory cytokines |

From patent US20240174617A1, “FPR2 (FORMYL PEPTIDE RECEPTOR 2)RECEPTOR AGONISTS AND THEIR USE IN THE TREATMENT OF THE AUTISM SPECTRUM DISORDER” (UNIVERSITA' DEGLI STUDI DI BARI ALDO MORO, priority 2021, published 2024)
